# Like-named read-outs stand apart in the source and are kept apart here.
# Assays:
# [1] = Tissue distribution study of radioiodinated fatty acid, 5 min post intravenous injection; type: in vivo, female Sp-raque-Dawley rats; settings: 5 min post injection, approximately 25 μCi, Prepared Via Present Method, average of 5 rats (standard deviation)
# Protocol: Tissue Distribution Study The radioiodinated 19-^125 I-iodononadecanoicacid was evaluated in female Sp-raque-Dawley rats weighing 250-350 g. The rats were given food and water ad libidum. For the tissue distribution study, approximately 25 μCi of the fatty acid in a physiological formulation (EtOH/Tween 80/0.9% saline: 2.5 ml/0.65 ml/22 ml) was administered intraveneously to ether anesthetized rats. Five animals were sacrificed at 5 min post injection. Representative 50-100 mg samples of heart, liver, lung, blood, and muscle were removed and cleaned of fat and connective tissue. Samples were counted in an auto-gamma scintillation counter and values corrected for radioactive decay, counting efficiency and background. The resulting tissue concentration values were normalized to a per kilogram body weight and are reported in % kg dose/g. as shown in Table 8.
# [2] = reported in J. Nucl. Med., 22:0000, 1981; average of 5 rats (standard deviation); cited from earlier work
smiles,measurement,setting,value
O=C(O)CCCCCCCCCCCCCCCCCC[125I] [19-^125 I--iodononadecanoic acid],"tissue concentration, Blood",[1],0.13 ± 0.00 % kg dose/g
same,"tissue concentration, Heart",[1],0.71 ± 0.01 % kg dose/g
same,"tissue concentration, Liver",[1],0.47 ± 0.03 % kg dose/g
same,"tissue concentration, Lung",[1],0.24 ± 0.02 % kg dose/g
same,"tissue concentration, Muscle",[1],0.14 ± 0.00 % kg dose/g
same,"tissue concentration, Blood",[2],0.15 ± 0.01 % kg dose/g
same,"tissue concentration, Heart",[2],0.88 ± 0.23 % kg dose/g
same,"tissue concentration, Liver",[2],0.53 ± 0.02 % kg dose/g
same,"tissue concentration, Lung",[2],0.28 ± 0.04 % kg dose/g
same,"tissue concentration, Muscle",[2],0.19 ± 0.00 % kg dose/g

# From patent US4450149A, “Radiohalogenation method” (Research Corporation, priority 1981, dated 1984)
